Consider 13 compounds from article PMC11313965, “Bioactive Naphthoquinone and Phenazine Analogs from the Endophytic Streptomyces sp. PH9030 as α-Glucosidase Inhibitors” (Molecules, 2024).

The target in series [1] is α-glucosidase (Saccharomyces cerevisiae, UniProt P53341). The experiment in a line: biochemical. As to conditions: read-out: IC50, α-glucosidase inhibitory activity.
The test system of series [2] is Klebsiella pneumoniae ATCC 13883. As to the kind of experiment: Antibacterial assay, broth dilution MIC. Type of series: cell-based. As to the method: (§1) The MIC values of 5–12 against Staphylococcus aureus ATCC 29213, MRSA, Klebsiella pneumoniae ATCC 13883 and Pseudomonas aeruginosa ATCC 9027 were determined via a broth dilution assay in 96-well plates, with levofloxacin as a control (Table S7).
(§2) The broth dilution method was used to determine the minimum inhibitory concentrations (MICs). The details are described in the Supplementary Materials. […]
(§3) Compounds 5 – 12 were tested for antibacterial activity against Staphylococcus aureus ATCC 29213, methicillin-resistant Staphylococcus aureus (MRSA), Klebsiella pneumoniae ATCC 13883 and Pseudomonas aeruginosa ATCC 9027. The MICs were determined using broth dilution assay. The bacterial strains were cultured overnight and diluted to […] in Luria-Bertani (LB, Table S1) broth. 5 – 12 were dissolved in DMSO, serially diluted to 10 different concentrations (64, 32, 16, 8, 4, 2, 1, 0.5. 0.25, 0.125 μg/mL) using LB broth on the 96 well plate.
(§4) Levofloxacin (Bide Pharmatech Ltd., Shanghai, China) was dissolved in DMSO, serially diluted to 1 0 concentrations (0.125 –64 μg/mL) using LB broth on each 96-well plate. Then 100 μL LB broth containing compounds 5 – 12 or levofloxacin and 100 μL of bacterial solution were mixed per well. The plates were incubated at 37 °C for 18 h. Finally, 50 μL resazurin (Shanghai Macklin Biochemical Technology Co., Ltd., Shanghai, China) was added into each well to visualize the result. […]

The test system of series [3] is Pseudomonas aeruginosa ATCC 9027. As to the kind of experiment: Antibacterial assay, broth dilution MIC. It counts as cell-based. How it is done: as §1, §2, §3, §4
Series [4] deals with Staphylococcus aureus ATCC 29213. The experiment in a line: Antibacterial assay, broth dilution MIC. Type of series: cell-based. How it is done: as §1, §2, §3, §4
Series [5] concerns methicillin-resistant Staphylococcus aureus (MRSA). The experiment in a line: Antibacterial assay, broth dilution MIC. As to conditions: 18 h. It counts as cell-based. As to the method:
as §1, §2, §3, §4

Series [6] has as its system Staphylococcus epidermidis ATCC 12228. Details: method as in PMID 24389824. To be noted: cited from earlier work.
Series [7] deals with Staphylococcus aureus ATCC 25923. On the set-up: method as in PMID 24389824. As to conditions: cited from earlier work.
In series [8] the test system is breast (MDA MB-231) cancer cells. To be noted: cited from earlier work.
The test system of series [9] is lung (A549) cancer cells. To be noted: cited from earlier work.
For series [10], the system named is Bacillus subrifis. On the set-up: method as in doi:10.1016/0040-4039(93)88010-G. To be noted: cited from earlier work.
For series [11], the system named is HeLa S3 cells. On the set-up: method as in PMID 2324009. As to conditions: cited from earlier work.
Setting [12] is: ATCC13883, Klebsiella pneumoniae ATCC 13883, 37 °C, 18 h, read-out: MIC.
Setting [13] is: ATCC9027, Pseudomonas aeruginosa ATCC 9027, 37 °C, 18 h, read-out: MIC.
Where [14] appears, read: ATCC29213, Staphylococcus aureus ATCC 29213, 37 °C, 18 h, read-out: MIC.
Setting [15] is: Staphylococcus aureus, 37 °C, read-out: MIC.

In brackets after ≈: the same amount, converted by molar mass. Where two headings read alike, the source gives them in different places.

Chain of α-glucosidase (P53341 whole entry): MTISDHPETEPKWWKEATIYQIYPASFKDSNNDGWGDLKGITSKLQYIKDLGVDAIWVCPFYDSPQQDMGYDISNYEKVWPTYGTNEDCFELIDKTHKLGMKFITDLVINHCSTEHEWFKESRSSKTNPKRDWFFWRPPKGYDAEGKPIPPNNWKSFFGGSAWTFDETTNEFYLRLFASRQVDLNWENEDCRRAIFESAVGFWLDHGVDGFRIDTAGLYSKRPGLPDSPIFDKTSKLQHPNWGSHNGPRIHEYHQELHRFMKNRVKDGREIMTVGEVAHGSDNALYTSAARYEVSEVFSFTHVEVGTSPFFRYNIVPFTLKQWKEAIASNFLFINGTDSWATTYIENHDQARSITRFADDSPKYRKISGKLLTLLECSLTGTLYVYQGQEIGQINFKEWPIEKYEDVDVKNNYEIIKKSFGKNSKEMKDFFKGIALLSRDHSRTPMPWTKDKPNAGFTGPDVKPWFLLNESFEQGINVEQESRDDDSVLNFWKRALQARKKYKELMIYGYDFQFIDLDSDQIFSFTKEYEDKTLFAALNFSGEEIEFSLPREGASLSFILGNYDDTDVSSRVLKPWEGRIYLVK

Take `CC1=CC2C3=C(OC(C)(C)C2CC1)C(=O)c1c(O)cc(O)cc1C3=O` (stereo not shown) [Compound 7, naphthgeranine A]: the IC50 in [1] amounted to 185.9 ± 0.2 µM. Further, the MIC in series [2] (setting [12]), in series [3] (setting [13]), in series [4] (setting [14]) and in [5] (setting [15]) was > 64 µg/mL in each case.
In the case of `C[C@H]1COc2c(N3CCN(C)CC3)c(F)cc3c(=O)c(C(=O)O)cn1c23` [LEV, levofloxacin, reference compound], the MIC was determined as 1 µg/mL (≈ 2.77 µM) in [2] (setting [12]), 2 µg/mL (≈ 5.53 µM) in [3] (setting [13]), 0.25 µg/mL (≈ 0.692 µM) in [4] (setting [14]) and 0.5 µg/mL (≈ 1.38 µM) in series [5] (setting [15]).
As for `Oc1c(Br)ccc2nc3ccccc3nc12` [Compound 3, 2-Bromo-1-hydroxyphenazine], the MIC in series [6] and in series [7] was 1.72 µg/mL (≈ 6.25 µM) in each case.
For the compound “5-Methyl phenazine-1-carboxylic acid [Compound 4]”, the values for the IC50 in [8] and in series [9] were 0.4586 ± 0.00248 µM and 0.4887 ± 0.00252 µM, respectively.
Take `c1ccc2nc3ccccc3nc2c1` [Compound 12, phenazin]: the figures for the MIC in series [2] (setting [12]) and in series [5] (setting [15]) were > 64 µg/mL and 16 µg/mL (≈ 88.8 µM), respectively.
On to `CC(C)=CCC[C@@]1(C)OC2=C(C(=O)c3c(Br)c(O)cc(O)c3C2=O)[C@@H]2C=C(C)CC[C@@H]21` [Compound 2, marinone], for which the MIC in [10] is 1 µg/mL (≈ 2.05 µM).
As to `O=C(O)c1cccc2c1Nc1ccccc1N2C(=O)CO` [Compound 8, 5-(2-hydroxyacetyl)-5,10-dihydrophenazine-1-carboxylic acid], the MIC in series [2] (setting [12]), in series [3] (setting [13]), in [4] (setting [14]) and in series [5] (setting [15]) was > 64 µg/mL throughout.
Turning to `O=C(O)c1cccc2nc3ccccc3nc12` [Compound 10, phenazine-1-carboxylic acid], the IC50 in series [1] is > 800 µM. The MIC in series [2] (Klebsiella pneumoniae, ATCC13883, 18 h) is > 64 µg/mL; in series [3] (Pseudomonas aeruginosa, ATCC9027, 18 h) it was > 64 µg/mL; in [4] (Staphylococcus aureus, ATCC29213, 18 h) it was 32 µg/mL (≈ 143 µM); in series [5] (Staphylococcus aureus) it was > 64 µg/mL.
With `CC1=CC2C3=C(OC(C)(C)C2CC1O)C(=O)c1c(O)cc(O)cc1C3=O` (stereo not shown) [Compound 5, naphthgeranine G], the IC50 in series [1] was 66.4 ± 6.7 µM. Moreover, the MIC in [2] (setting [12]), in series [3] (setting [13]), in series [4] (setting [14]) and in series [5] (setting [15]) was > 64 µg/mL in each case.
Turning to `NC(=O)c1cccc2nc3ccccc3nc12` [Compound 9, phenazine-1-carboxamide], the IC50 in series [1] stood at 105 ± 10.5 µM. Moreover, the MIC in series [2] (setting [12]) was > 64 µg/mL; in series [3] (setting [13]), > 64 µg/mL; in series [4] (setting [14]), 64 µg/mL (≈ 287 µM); in [5] (setting [15]), 16 µg/mL (≈ 71.7 µM).
`CC1=CC2C3=C(OC(C)(C)C2CC1O)C(=O)c1c(O)cc(O)cc1C3=O` (stereo not shown) [Compound 6, 12-Hydroxy-naphthgeranine A]: the 50% inhibitory concentration (IC50) in series [1] is 116 ± 4.4 µM. The MIC in [2] (Klebsiella pneumoniae ATCC 13883, 37 °C, 18 h) is > 64 µg/mL; in series [3] (Pseudomonas aeruginosa ATCC 9027, 37 °C, 18 h), > 64 µg/mL; in series [4] (Staphylococcus aureus ATCC 29213, 37 °C, 18 h), > 64 µg/mL; in series [5] (37 °C) it was > 64 µg/mL.
As to `COC(=O)c1cccc2nc3ccccc3nc12` [Compound 11, 1-carbomethoxyphenazine], the MIC in [2] (setting [12]) and in series [5] (setting [15]) was > 64 µg/mL each time.
As to `CC1(C)OC2=C(C(=O)c3cc(O)cc(O)c3C2=O)[C@@H]2C=C(CO)CC[C@@H]21` [Compound 1, naphthgeranine B], the “IC50, cytotoxic effect” value in series [11] is 1.6 µg/mL (≈ 4.49 µM).
